The results in this text go back to patent US6114390A, “Amino acid derivatives, pharmaceutical compositions containing these compounds and processes for preparing them” (Karl Thomae GmbH, priority 1997, dated 2000).

pIC50: −log10 of the molar value.

For one test, the target named is T1, human Y4 receptor (Homo sapiens, UniProt P50391).
T1 construct: expressed in transfected cells; host or cells: CHO
As to the kind of experiment: Receptor binding, CHO cells transiently transfected with human Y4 receptor. The following applies: means ± S.E.M. of 3 to 5 experiments, read-out: Affinity IC50, humanY4/CHO. On the procedure: (§1) CHO cells transiently transfected with human Y4 and rat Y5 receptor: Transfection was performed using the lipofectamine method according to the manufacturer's protocol (GIBCO BRL Eggenstein, Germany) using expression plasmids encoding the rat Y5 or human Y4 receptor, respectively. Receptor binding was performed as described for rat Y1 expressing HEK 293 cells.

The next test deals with T2, rat Y5 receptor (Rattus norvegicus, UniProt Q63634).
T2 construct: expressed in transfected cells; host or cells: CHO
T2 sequence (Q63634 1-445): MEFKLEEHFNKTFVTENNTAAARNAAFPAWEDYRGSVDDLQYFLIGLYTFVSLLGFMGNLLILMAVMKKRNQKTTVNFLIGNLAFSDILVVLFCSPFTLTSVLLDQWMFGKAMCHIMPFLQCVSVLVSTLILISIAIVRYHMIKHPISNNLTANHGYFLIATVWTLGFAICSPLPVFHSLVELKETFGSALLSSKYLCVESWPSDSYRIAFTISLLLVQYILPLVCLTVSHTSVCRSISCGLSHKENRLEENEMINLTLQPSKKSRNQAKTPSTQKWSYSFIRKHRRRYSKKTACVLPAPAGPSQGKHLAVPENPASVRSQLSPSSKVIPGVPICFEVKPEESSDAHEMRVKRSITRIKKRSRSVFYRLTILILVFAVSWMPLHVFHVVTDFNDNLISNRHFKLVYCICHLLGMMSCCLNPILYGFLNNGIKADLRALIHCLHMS
As to the kind of experiment: Receptor binding, CHO cells transiently transfected with rat Y5 receptor. The following applies: means ± S.E.M. of 3 to 5 experiments, read-out: Affinity IC50, ratY5/CHO. On the procedure:
as §1

For another test, the system named is NPY induced food intake. As to the kind of experiment: Food intake in satiated rats after NPY application to the PVN. As to conditions: for % Inhibition of food intake: PVN, 2 h, 1 μg NPY. In kind it is in vivo, rat. The protocol: For these determinations food intake was measured in normal satiated rats after application of NPY to the paraventricular nucleus (PVN) in the presence or absence of the test compound. […] The rats were individually housed in stainless steel cages where water and food were available ad libitum.
Rats under Pentobarbital anaesthesia were stereotactically implanted with a stainless steel double guide cannula targeted bilaterally at the PVNs. Stereotactic coordinates were: -1.8mm caudal, 0.5mm lateral to bregma and 7.0 mm below the skull surface. Injection cannulae extended the guide cannulae by 1 mm. Animals were allowed to recover from surgery for at least 10 days before being used in the experiments. Rats were handled and mock-injected during the […] recovery period to habituate them to the injection procedure.
Animals treated with both test compounds and NPY were treated first with the test compound. Then, 15 min. after PVN infusion of the test compound or vehicle (control) 1 μg of NPY was administered by PVN infusion.
Food intake was measured by placing preweighed pellets into the cages at the time of NPY injection. Pellets were removed from the cage at 2 h post NPY injection. The food intake of animals treated with test compound was calculated as a percentage of the food intake of control animals, i.e., animals treated with vehicle.

The target of the next test is T3, human Y2 receptor (Homo sapiens, UniProt P49146).
T3 construct: expressed in transfected cells; host or cells: BHK
T3 sequence (P49146 1-381): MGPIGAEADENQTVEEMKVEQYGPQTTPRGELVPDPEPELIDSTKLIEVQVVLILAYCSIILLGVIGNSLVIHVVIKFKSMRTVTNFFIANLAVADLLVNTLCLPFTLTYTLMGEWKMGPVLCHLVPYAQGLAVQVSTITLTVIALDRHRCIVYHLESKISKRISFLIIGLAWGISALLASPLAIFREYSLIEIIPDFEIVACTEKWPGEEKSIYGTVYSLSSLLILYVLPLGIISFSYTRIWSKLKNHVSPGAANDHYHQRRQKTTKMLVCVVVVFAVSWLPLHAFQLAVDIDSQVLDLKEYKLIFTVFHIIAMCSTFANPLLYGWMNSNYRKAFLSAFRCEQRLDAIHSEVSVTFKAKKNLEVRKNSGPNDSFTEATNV
As to the kind of experiment: Receptor binding, BHK cells stably expressing the human Y2 receptor. The following applies: read-out: Affinity IC50, humanY2/BHK. On the procedure: BHK cells stably expressing the human Y1 receptor: Cells were grown in DMEM with 4.5 g/l glucose, 10% FCS, 1% PENStrep, 1 mg/ml G-418, 1 mg/ml hygromycin B. 96h before receptor binding assay 1mM IPTG was added in order to induce expression. Confluent cells were removed with 0.06% EDTA/PBS (1 min incubation) and resuspended in 15 ml incubation buffer (MEM/25 mM HEPES +1% BSA, […], 0.1% bacitracin, 3.75 mM CaCl2). After 10 min centrifugation at RT (150×g), the pellet was resuspended in 50 ml incubation buffer, respun and resuspended in 30 ml incubation buffer. After counting, the cells were diluted to a final concentration of 2.5×10^5 cells/ml. Two hundred microliters of this cell suspension was incubated 3 h at RT with 30 pM [^125 I]NPY and increasing concentrations of test compounds in a total volume of […]. The incubation was stopped by 10 min centrifugation, 3000×g at 4° C. The pellet was resuspended with 0.25 ml PBS recentrifuged and the pellet measured in a γ-counter.
BHK cells stably expressing the human Y2 receptor: Assay was performed essentially as described for human Y1 expressing BHK cells.

The next test deals with T4, rat Y4 receptor (Rattus norvegicus, UniProt Q63447).
T4 construct: expressed in transfected cells; host or cells: BHK
Kind of test: Receptor binding, BHK cells stably transfected with rat Y4 receptor. The following applies: read-out: Affinity IC50, ratY4/BHK. On the procedure:
BHK cells stably transfected with rat Y4 receptor: Cultivation and receptor binding was performed as described for hY1/BHK with exception of incubation medium (25 mM HEPES, 2.5 mM CaCl2, 1.0 mM MgCl2, pH 7.4) and final concentration of cell suspension 5×10^5 cells/ml. 24 h before receptor binding assay 1.0 mM IPTG was added for induction of expression. Incubation time for binding assay: 2 h.

A further test relates to NPY. Kind of test: In vivo NPY-antagonism, NPY-induced blood pressure effects in pithed rats. The following applies: Rattus norvegicus, iv, 1 min, NPY 10 μg/kg i.v., diastolic blood pressure, read-out: pIC50 (in vivo NPY-antagonism) (converted). The protocol: After intubation of the trachea the animals are pithed by introducing a blunt needle through the eye into the spinal bone marrow channel. The animals are ventilated with oxygen-rich ambient air using a respiratory pump (20 strokes/minute). A cannula is inserted in the left carotid artery and the arterial blood pressure is measured using a pressure gauge (Braun Melsungen Combitrans) connected to a recording device. For injection purposes a catheter is placed in the left jugular vein through which heparin is administered (200 IU/kg, i.v.). After the blood pressure has been stabilised, the animals are given 2 bolus injections of NPY (10 μg/kg, i.v.) at intervals of 15 minutes. The average increase in diastolic blood pressure is taken as the reference value (=100%). The test substances are injected in increasing doses (4 to 6 doses) at intervals of 15 minutes. One minute after administration of the test substance, NPY is administered.
The antagonistic effect of the test substances is determined by plotting the percentage inhibition of the NPY-induced blood pressure effects against the logarithm of the concentration of active substance.

T4 sequence (Q63447 whole entry): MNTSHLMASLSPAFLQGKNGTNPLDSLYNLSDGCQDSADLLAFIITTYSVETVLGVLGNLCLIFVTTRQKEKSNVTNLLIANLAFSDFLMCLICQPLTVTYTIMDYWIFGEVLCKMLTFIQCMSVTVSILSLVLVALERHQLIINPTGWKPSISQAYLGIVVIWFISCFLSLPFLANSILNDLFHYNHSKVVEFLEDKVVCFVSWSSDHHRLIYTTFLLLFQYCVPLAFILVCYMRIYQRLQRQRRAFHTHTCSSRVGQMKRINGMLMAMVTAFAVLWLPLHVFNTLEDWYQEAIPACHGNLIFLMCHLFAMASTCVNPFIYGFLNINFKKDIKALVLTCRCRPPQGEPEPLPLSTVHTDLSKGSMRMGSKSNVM
T1 sequence (P50391 whole entry): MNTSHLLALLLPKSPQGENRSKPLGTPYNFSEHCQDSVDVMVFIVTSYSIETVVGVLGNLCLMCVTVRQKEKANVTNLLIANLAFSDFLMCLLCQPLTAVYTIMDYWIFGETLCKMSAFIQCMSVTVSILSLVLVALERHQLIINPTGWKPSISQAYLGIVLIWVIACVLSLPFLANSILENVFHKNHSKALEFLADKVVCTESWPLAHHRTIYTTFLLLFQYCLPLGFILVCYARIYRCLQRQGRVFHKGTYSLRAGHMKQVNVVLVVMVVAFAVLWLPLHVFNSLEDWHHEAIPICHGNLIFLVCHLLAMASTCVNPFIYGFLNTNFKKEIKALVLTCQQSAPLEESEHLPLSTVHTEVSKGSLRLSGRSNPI

In the case of `N=C(N)NCCC[C@@H](NC(=O)C(c1ccccc1)c1ccccc1)C(=O)NCc1ccc(CNC(N)=O)cc1` [Compound C], the pIC50 at human Y4 receptor was 4.91; on rat Y5 receptor, 4.68; at human Y2 receptor, less than 6.00; at rat Y4 receptor, less than 5.00. The “NPY induced food intake (result in words)” value in the test with NPY induced food intake was “reduced”. The “% Inhibition of food intake” value in the test with NPY induced food intake (15 μg) is on record as 25.9%; in the test on NPY induced food intake (30 μg) it was 52.8%; with NPY induced food intake (60 μg), 69.8%. In the test with NPY, the ED50 is 0.00776 µmol/kg.
